In patent publication US20170129916A1, “NOVEL BETULINIC PROLINE IMIDAZOLE DERIVATIVES AS HIV INHIBITORS” (HETERO RESEARCH FOUNDATION, priority 2014, published 2017):

Key:
[1] = tested on: HIV-1 strains, for e.g., 92HT599; experiment: Antiviral activity: p24 estimation in MT-2 cells infected with HIV-1; format: cell-based; conditions: Human immunodeficiency virus 1, MT2, MT-2 cells infected with HIV-1, p24, ~96 hours; for IC50: read-out: Antiviral activity IC50 (nM) Efficacy IC50
Description: MT-2 cells were infected with required number of TCID50's of HIV-1 strains, for e.g., 92HT599. The infected cells were plated at the concentration of 30, 000 cells per well in a 96 well plate. Test compound was added to the 96 well plate with the final concentration of DMSO (vehicle—not more than 1%). The plates are then incubated in a CO2 incubator for ˜96 hours (˜4 days) for viral infection. At the end of incubation period an aliquot from each well was taken for p24 estimation. The quantitation of p24 is an estimated index for antiviral activity of the compound. Percent inhibition was calculated with reference to control values (vehicle controls).
p-24 estimation was carried out using Advance biosciences kit as per the procedure detailed by supplier.

[2] = Single dose oral pharmacokinetic study; format: in vivo; conditions: mouse, mice, 30 mg/kg, plasma; for AUC(0-t): read-out: Mice oral PK @30 mg/kg AUC 0-t; for Cmax: read-out: Mice oral PK @30 mg/kg Cmax
Description: The test item was administered through oral route to animals (rat/mice) at 30 mg/kg dose in a suitable vehicle at 10 ml/kg dose volume. Blood samples (˜50 uL at each time point) were collected from retro-orbital plexus using K3 EDTA as anticoagulant in eppend; orf tubes at defined time intervals under light ether anesthesia. The samples were centrifuged at 3500×g to separate plasma and stored at −80° C. until analysis.
Sample analysis: Test samples were analyzed using LC-MS-MS after developing fit-for-purpose method for each of test compound.

Compound	IC50 [1]	inhibition at 0.1 µM ([1]; 0.1 μM)	inhibition at 1 µM ([1]; 1 μM)	AUC(0-t) [2]	Cmax [2]
C=C(C)[C@@H]1CC[C@]2(C(=O)N3C[C@H](OCCOC)C[C@H]3c3nc(-c4ccc(F)cc4)c[nH]3)CC[C@]3(C)[C@H](CC[C@@H]4[C@@]5(C)CC[C@H](OC(=O)[C@H]6C[C@@H](C(=O)O)C6(C)C)C(C)(C)[C@@H]5CC[C@]43C)[C@@H]12 [Compound 9, (1R,3S)-3-((((1R,3aS,5aR,5bR,7aR,9S,11aR,11bR,13aR,13bR)-3a-((2S,4R)-2-(4-(4-fluorophenyl)-1H-imidazol-2-yl)-4-(2-methoxyethoxy)pyrrolidine-1-carbonyl)-5a,5b,8,8,11a-pentamethyl-1-(prop-1-en-2-yl)icosahydro-1H-cyclopenta[a]chrysen-9-yl)oxy)carbonyl)-2,2-dimethylcyclobutane-1-carboxylic acid]	5.52 nM	–	–	–	–
C=C(C)[C@@H]1CC[C@]2(C(=O)N3CCC[C@H]3c3nc(-c4ccccc4)c(C)[nH]3)CC[C@]3(C)[C@H](CC[C@@H]4[C@@]5(C)CC[C@H](OC(=O)[C@H]6C[C@@H](C(=O)O)C6(C)C)C(C)(C)[C@@H]5CC[C@]43C)[C@@H]12 [Compound 13, (1R,3S)-2,2-dimethyl-3-((((1R,3aS,5aR,5bR,7aR,9S,11aR,11bR,13aR,13bR)-5a,5b,8,8,11a-pentamethyl-3a-((S)-2-(5-methyl-4-phenyl-1H-imidazol-2-yl)pyrrolidine-1-carbonyl)-1-(prop-1-en-2-yl)icosahydro-1H-cyclopenta[a]chrysen-9-yl)oxy)carbonyl)cyclobutane-1-carboxylic acid]	4.9 nM	–	–	–	–
C=C(C)[C@@H]1CC[C@]2(C(=O)N3CCC[C@H](c4ncc(-c5ccccc5)[nH]4)C3)CC[C@]3(C)[C@H](CC[C@@H]4[C@@]5(C)CC[C@H](OC(=O)[C@H]6C[C@@H](C(=O)O)C6(C)C)C(C)(C)[C@@H]5CC[C@]43C)[C@@H]12 [Compound 20, (1R,3S)-2,2-dimethyl-3-((((1R,3aS,5aR,5bR,7aR,9S,11aR,11bR,13aR,13bR)-5a,5b,8,8,11a-pentamethyl-3a-((S)-3-(5-phenyl-1H-imidazol-2-yl)piperidine-1-carbonyl)-1-(prop-1-en-2-yl)icosahydro-1H-cyclopenta[a]chrysen-9-yl)oxy)carbonyl)cyclobutane-1-carboxylic acid]	58.4 nM	–	–	–	–
C=C(C)[C@@H]1CC[C@]2(C(=O)N3CCC[C@H]3c3ncc(-c4ccccc4)[nH]3)CC[C@]3(C)[C@H](CC[C@@H]4[C@@]5(C)CC[C@H](OC(=O)C6C(C(=O)O)C6(C)C)C(C)(C)[C@@H]5CC[C@]43C)[C@@H]12 (stereo partly drawn) [Compound 22, 2,2-di methyl-3-((((1R,3aS,5aR,5bR,7aR,9S,11aR,11bR,13aR,13bR)-5a,5b,8,8,11a-pentamethyl-3a-((S)-2-(5-phenyl-1H-imidazol-2-yl)pyrrolidine-1-carbonyl)-1-(prop-1-en-2-yl)-icosahydro-1H-cyclopenta[a]chrysen-9-yl)oxy)carbonyl)cyclopropane-1-carboxylic acid]	1000 nM	–	–	–	–
C=C(C)[C@@H]1CC[C@]2(C(=O)N3C[C@H](OC(C)C)C[C@H]3c3nc(-c4ccccc4)c[nH]3)CC[C@]3(C)[C@H](CC[C@@H]4[C@@]5(C)CC[C@H](OC(=O)[C@H]6C[C@@H](C(=O)O)C6(C)C)C(C)(C)[C@@H]5CC[C@]43C)[C@@H]12 [Compound 30, (1R,3S)-3-((((1R,3aS,5aR,5bR,7aR,9S,11aR,11bR,13aR,13bR)-3a-((2S,4R)-4-isopropoxy-2-(4-phenyl-1H-imidazol-2-yl)pyrrolidine-1-carbonyl)-5a,5b,8,8,11a-pentamethyl-1-(prop-1-en-2-yl)icosahydro-1H-cyclopenta[a]chrysen-9-yl)oxy)carbonyl)-2,2-dimethylcyclobutane-1-carboxylic acid]	89.6 nM	61%	99%	–	–
C=C(C)[C@@H]1CC[C@]2(C(=O)N3C4CCC3CC(n3c(C)nnc3C(C)C)C4)CC[C@]3(C)[C@H](CC[C@@H]4[C@@]5(C)CC[C@H](OC(=O)CC(C)(C)C(=O)O)C(C)(C)[C@@H]5CC[C@]43C)[C@@H]12 (stereo partly drawn) [Compound 49, 4-(((1R,3aS,5aR,5bR,7aR,9S,11aR,11bR,13aR,13bR)-3a-((1R,3R,5S)-3-(3-isopropyl-5-methyl-4H-1,2,4-triazol-4-yl)-8-azabicyclo[3.2.1]octane-8-carbonyl)-5a,5b,8,8,11a-pentamethyl-1-(prop-1-en-2-yl)icosahydro-1H-cyclopenta[a]chrysen-9-yl)oxy)-2,2-dimethyl-4-oxobutanoic acid]	–	–	–	111 µg·h/mL	10800 ng/mL
COCCOc1ccc(-c2cnc([C@@H]3CCCN3C(=O)[C@]34CC[C@@H](C5(C)CC5)[C@@H]3[C@H]3CC[C@@H]5[C@@]6(C)CC[C@H](OC(=O)[C@H]7C[C@@H](C(=O)O)C7(C)C)C(C)(C)[C@@H]6CC[C@@]5(C)[C@]3(C)CC4)[nH]2)cc1 [Compound 52, (1R,3S)-3-((((1R,3aS,5aR,5bR,7aR,9S,11aR,11bR,13aR,13bR)-3a-((S)-2-(5-(4-(2-methoxyethoxy)phenyl)-1H-imidazol-2-yl)pyrrolidine-1-carbonyl)-5a,5b,8,8,11a-pentamethyl-1-(1-methylcyclopropyl)icosahydro-1H-cyclopenta[a]chrysen-9-yl)oxy)carbonyl)-2,2-dimethylcyclobutane-1-carboxylic acid]	–	–	–	273 µg·h/mL	9610 ng/mL
CC1([C@@H]2CC[C@]3(C(=O)N4CCC[C@H]4c4ncc(-c5ccc[n+]([O-])c5)[nH]4)CC[C@]4(C)[C@H](CC[C@@H]5[C@@]6(C)CC[C@H](OC(=O)[C@H]7C[C@@H](C(=O)O)C7(C)C)C(C)(C)[C@@H]6CC[C@]54C)[C@@H]23)CC1 [Compound 53, 3-(2-((S)-1-((1R,3aS,5aR,5bR,7aR,9S,11aR,11bR,13aR,13bR)-9-(((1S,3R)-3-carboxy-2,2-dimethylcyclobutane-1-carbonyl)oxy)-5a,5b,8,8,11a-pentamethyl-1-(1-methylcyclopropyl)icosahydro-1H-cyclopenta[a]chrysene-3a-carbonyl)pyrrolidin-2-yl)-1H-imidazol-5-yl)pyridine-1-oxide]	–	–	–	471 µg·h/mL	14700 ng/mL
Cc1nnc(C(C)C)n1C1CCN(C(=O)[C@]23CC[C@@H](C4(C)CC4)[C@@H]2[C@H]2CC[C@@H]4[C@@]5(C)CC[C@H](OC(=O)[C@H]6C[C@@H](C(=O)O)C6(C)C)C(C)(C)[C@@H]5CC[C@@]4(C)[C@]2(C)CC3)CC1 [Compound 58, (1R,3S)-3-((((1R,3aS,5aR,5bR,7aR,9S,11aR,11bR,13aR,13bR)-3a-(4-(3-isopropyl-5-methyl-4H-1,2,4-triazol-4-yl)piperidine-1-carbonyl)-5a,5b,8,8,11a-pentamethyl-1-(1-methylcyclopropyl)icosahydro-1H-cyclopenta[a]chrysen-9-yl)oxy)carbonyl)-2,2-dimethylcyclobutane-1-carboxylic acid]	–	–	–	104 µg·h/mL	3050 ng/mL
Cc1nnc(C(C)C)n1C1CC2CCC(C1)N2C(=O)[C@]12CC[C@@H](C3(C)CC3)[C@@H]1[C@H]1CC[C@@H]3[C@@]4(C)CC[C@H](OC(=O)[C@H]5C[C@@H](C(=O)O)C5(C)C)C(C)(C)[C@@H]4CC[C@@]3(C)[C@]1(C)CC2 (stereo partly drawn) [Compound 60, (1R,3S)-3-((((1R,3aS,5aR,5bR,7aR,9S,11aR,11bR,13aR,13bR)-3a-((1R,3R,5S)-3-(3-isopropyl-5-methyl-4H-1,2,4-triazol-4-yl)-8-azabicyclo[3.2.1]octane-8-carbonyl)-5a,5b,8,8,11a-pentamethyl-1-(1-methylcyclopropyl)icosahydro-1H-cyclopenta[a]chrysen-9-yl)oxy)carbonyl)-2,2-dimethylcyclobutane-1-carboxylic acid]	–	–	–	295 µg·h/mL	6520 ng/mL
Cc1nnc(C(C)C)n1C1CCN(C(=O)[C@]23CC[C@@H](C4(C)CC4)[C@@H]2[C@H]2CC[C@@H]4[C@@]5(C)CC[C@H](OC(=O)CC(C)(C)C(=O)O)C(C)(C)[C@@H]5CC[C@@]4(C)[C@]2(C)CC3)CC1 [Compound 69, 4-(((1R,3aS,5aR,5 bR,7aR,9S,11aR,11bR,13aR,13bR)-3a-(4-(3-isopropyl-5-methyl-4H-1,2,4-triazol-4-yl)piperidine-1-carbonyl)-5a,5b,8,8,11a-pentamethyl-1-(1-methylcyclopropyl)icosahydro-1H-cyclopenta[a]chrysen-9-yl)oxy)-2,2-dimethyl-4-oxobutanoic acid]	–	–	–	238 µg·h/mL	16700 ng/mL
Cc1nnc(C(C)C)n1C1CC2CCC(C1)N2C(=O)[C@]12CC[C@@H](C3(C)CC3)[C@@H]1[C@H]1CC[C@@H]3[C@@]4(C)CC[C@H](OC(=O)CC(C)(C)C(=O)O)C(C)(C)[C@@H]4CC[C@@]3(C)[C@]1(C)CC2 (stereo partly drawn) [Compound 71, 4-(((1R,3aS,5aR,5bR,7aR,9S,11aR,11bR,13aR,13bR)-3a-((R,3R,5S)-3-(3-isopropyl-5-methyl-4H-1,2,4-triazol-4-yl)-8-azabicyclo[3.2.1]octane-8-carbonyl)-5a,5b,8,8,11a-pentamethyl-1-(1-methylcyclopropyl)icosahydro-1H-cyclopenta[a]chrysen-9-yl)oxy)-2,2-dimethyl-4-oxobutanoic acid]	–	–	–	298 µg·h/mL	15800 ng/mL
